The source of these data is PubChem BioAssay AID812 (SRMLSC, 2007).

Calls of active or inactive are those of the source. How the calls were made is not given here. Bounds are passed on as bounds.

For this assay, the system named is Saccharomyces cerevisiae lifespan extension, no nicotinamide. In words: yeast lifespan extension without nicotinamide, confirmation, yeast lifespan extension project, S. cerevisiae (AID 812).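 Further: growth read as optical density after 42 hours of incubation at 30C.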
As to `CN1C/C(=C/c2cccnc2)C(=O)/C(=C/c2cccnc2)C1`, the EC50 is > 40 µM (inactive).
For the compound `CC1=CS(=O)(=O)CC1Sc1nc2ccccc2[nH]1` (centres undefined), the EC50 was > 40 µM (inactive).
The same measure for `O=C(CCN1CCCCCC1)Nc1ccc(F)cc1`: > 40 µM (inactive); for `Cc1nn(C(C)(C)C)c(OC(=O)c2ccc(Br)o2)c1Sc1ccccc1`: > 40 µM (inactive).
The result for `CCCCn1c(=O)c2c(O)cc(=O)oc2c2ccccc21` reads > 40 µM (inactive).
With `Cc1cc(C)c(S(=O)(=O)c2ccccc2)c(OC(=O)c2cc(F)c(F)cc2Cl)n1`, the EC50 was > 40 µM (inactive).
The same measure for `O=C(NCCc1ccccn1)C(F)(F)C(F)(F)C(F)(F)C(F)(F)C(F)(F)C(F)(F)C(F)(F)C(F)F`: > 40 µM (inactive); for `Cc1ccc(-c2nc3ccc(Cl)cc3n2OC(=O)N(C)C)cc1`: > 40 µM (inactive).
The same measure for `Oc1ccc(Br)cc1C=Nc1ccc2[nH]ncc2c1`: > 40 µM (inactive); for `CS(=O)(=O)Oc1ccc(Br)cc1/C=C1/N=C(c2ccco2)OC1=O`: > 40 µM (inactive).
The same measure for `CCn1c(/C=N/c2nc3ccccc3n2C)nc2ccccc21`: > 40 µM (inactive); for `O=[N+]([O-])c1c(C(Cl)Cl)nn(-c2ccccc2)c1N1CCCC1`: > 40 µM (inactive); for `O=C(NCc1ccc(Cl)cc1)c1ccccc1CCc1ccccc1`: > 40 µM (inactive).
`CS(=O)(=O)c1nc(-c2cccs2)cc(C(F)(F)F)n1`: the EC50 is > 40 µM (inactive).
The result for `CCCC(=O)C1C(=O)CC(CC(C)SCC)CC1=O` (centres undefined) reads > 40 µM (inactive); that for `Cc1ccnc(N=Cc2c(O)ccc3oc4c(c23)CCCC4)c1`, > 40 µM (inactive); that for `COCCN(CCOC)S(=O)(=O)c1ccc(C(=O)Nc2sc3c(c2C(N)=O)CCCCC3)cc1`, > 40 µM (inactive).
The result for `CCCCC(c1nnnn1CC1CCCO1)N1CCN(c2nc3ccccc3s2)CC1` (centres undefined) reads > 40 µM (inactive); that for `CCc1ccc(C(=O)CN2C(=O)NC(C)(CCc3ccccc3)C2=O)cc1` (centres undefined), > 40 µM (inactive); that for `Cc1ccc2nc(N3C(=O)C(O)=C(C(=O)c4ccco4)C3c3cccs3)sc2c1` (centres undefined), > 40 µM (inactive).
Turning to `CCC(=O)Nc1ccccc1Sc1ncnc2scc(-c3ccccc3)c12`, the EC50 was > 40 µM (inactive).
The result for `C[C@]12CC[C@@H]3c4ccc(O)cc4CC[C@H]3[C@@H]1CC[C@@H]2OC(=O)CCC(=O)O` reads > 40 µM (inactive); that for `O=C(Nc1cccnc1)c1c(O)c2cccc3c2n(c1=O)CC3`, > 40 µM (inactive); that for `Cc1ccc(NC(=O)C2C(=O)N(C)c3ccccc32)cc1` (centres undefined), > 40 µM (inactive).
The same measure for `CCOC(=O)/C(=C/c1ccc(OC(=O)c2ccccc2)cc1)C(C)=O`: > 40 µM (inactive); for `Nn1c(-c2ccccn2)nnc1-c1ccccn1`: > 40 µM (inactive).
The same measure for `COc1ccc2c3c(cccc13)C(=O)N(O)C2=O`: > 40 µM (inactive).
For `CC(=Nc1ccc2c(c1)nc(CO)n2C)C1=C(O)CC(C)(C)CC1=O`, the EC50 was > 40 µM (inactive).
The same measure for `O=C(Nc1cccc(Cl)c1)c1ccc2c(=O)n3c(nc2c1)CCCCC3`: > 40 µM (inactive).
The same measure for `CC[n+]1ccc(C[n+]2ccccc2)c2ccccc21`: > 40 µM (inactive).
The same measure for `N#CSCC(=O)N1c2ccccc2CCc2ccccc21`: > 40 µM (inactive).
Take `CCOC(=O)c1ccc2c(c1)n(CCO)c(C)[n+]2CC`: the EC50 was > 40 µM (inactive).
The same measure for `CC1(C)CC2c3cccc(C(=O)O)c3C(=O)N2c2c1ccc1ccccc21` (centres undefined): > 40 µM (inactive); for `O=C(/C(=C/O)N=Nc1ccc(Cl)cc1)c1ccncc1`: > 40 µM (inactive).
On to `CCCCSc1nc(O)c(C2OC(=O)c3c2ccc(OC)c3OC)c(=O)n1C` (centres undefined), for which the EC50 was > 40 µM (inactive).
The result for `O=c1cc(O)c2c(=O)n(-c3ccccc3)c3c(c2o1)CCCCCC3` reads > 40 µM (inactive); that for `CCCCn1c(/N=C/c2ccccc2NS(=O)(=O)c2ccc(C)cc2)nc2ccccc21`, > 40 µM (inactive); that for `CC(C)Cn1c(=O)c(C(=O)Nc2cnccn2)c(O)c2ccccc21`, > 40 µM (inactive).
The result for `O=C(NC(=S)NNC(=O)c1ccccc1O)c1ccco1` reads > 40 µM (inactive).
The result for `CC(C)c1ccc2occ(-c3nn[nH]n3)c(=O)c2c1` reads > 40 µM (inactive).
Regarding `O=C(CS(=O)c1ccc(C(F)(F)F)cc1[N+](=O)[O-])Oc1ccccc1` (centres undefined), the EC50 was > 40 µM (inactive).
The result for `C=CCN(CC=C)c1nc2ccccc2nc1C(C#N)C(=O)OC(C)C` (centres undefined) reads > 40 µM (inactive).
Regarding `COc1ccc(O)c(C(=O)c2cc(C#N)c(=O)n(CC3CCCO3)c2)c1` (centres undefined), the EC50 is > 40 µM (inactive).
On to `CC1=NN(Cc2ccccc2)C(=O)C1C(c1ccccc1)C(C#N)C#N` (centres undefined), for which the EC50 was > 40 µM (inactive).
Consider `O=C1CC(c2ccccc2)CC(O)=C1C=NCCN1CCOCC1` (centres undefined), for which the EC50 is > 40 µM (inactive).
Take `CCOC(=O)COc1ccccc1/C=C\[N+](=O)[O-]`: the EC50 is > 40 µM (inactive).
The same measure for `Cc1ccc(/C=C2/C(=O)NC(=O)N(CCc3ccc(F)cc3)C2=O)o1`: > 40 µM (inactive); for `CCn1c(/N=C/c2ccccc2NS(=O)(=O)c2ccc(C)cc2)nc2ccccc21`: > 40 µM (inactive).
Turning to `Cc1cccc(NC(=O)c2c(O)c3cccc4c3n(c2=O)CCC4)n1`, the EC50 is > 40 µM (inactive).
The result for `COc1ccc(NCc2nc3ccccc3n2CCOc2ccccc2)cc1` reads > 40 µM (inactive); that for `O=S(=O)(Nc1nc2ccccc2nc1Cl)c1ccc2ccccc2c1`, > 40 µM (inactive).
The same measure for `O=C(/C=C/c1ccccc1)Nc1ncn[nH]1`: > 40 µM (inactive).
In the case of `Cc1ccc(-c2ccc(/C=C3\C(=O)ON=C3c3ccccc3)o2)c([N+](=O)[O-])c1`, the EC50 is > 40 µM (inactive).
On to `CCn1cc(C(=O)O)c(=O)c2ccc(C)nc21`, for which the EC50 is > 40 µM (inactive).
The result for `COC(=O)C(=O)/C=C(\O)c1ccc(C)cc1` reads > 40 µM (inactive); that for `CCc1nnc(NC(=O)c2cccc(S(=O)(=O)N(C)c3ccccc3)c2)s1`, > 40 µM (inactive).
The same measure for `Cc1cc(C2C(C#N)=C(N)Oc3n[nH]c(C)c32)c(C)s1` (centres undefined): > 40 µM (inactive); for `O=C1c2ccccc2-c2onc3c(Oc4ccccc4)cc(O)c1c23`: > 40 µM (inactive); for `CC(=O)Oc1ccccc1N1C(=O)c2ccc(C(=O)O)cc2C1=O`: > 40 µM (inactive).
The result for `COc1ccc(C2CC23N=C(c2ccccc2)OC3=O)cc1` (centres undefined) reads > 40 µM (inactive); that for `CCc1nnc(N2C(=O)c3ccc(Oc4ccc([N+](=O)[O-])cc4)cc3C2=O)s1`, > 40 µM (inactive).
In the case of `C/C=C/Cn1c(N2CCCCCC2)nc2c1c(=O)[nH]c(=O)n2C`, the EC50 was > 40 µM (inactive).
The result for `O=C(NC(=S)NNC(=O)c1ccc(Cl)cc1Cl)c1cccnc1` reads > 40 µM (inactive); that for `CN1CCN(C(=S)Nc2cc([N+](=O)[O-])ccc2Cl)CC1`, > 40 µM (inactive).

As a reminder, the EC50 is the concentration at which the effect is half-maximal.
